How the values were obtained:
Southern Armyworm = assay: Protocol 1 Southern Armyworm (AW) foliar spray test; assay type: in vivo, Spodoptera eridania
Experimental: (§1) A test solution containing 1250 parts per million (ppm) was prepared by dissolving the test compound in […] of a second solvent (acetone: water, 1:1) to give an acetone:water: methanol system of 50: 40:10.
(§2) The enclosed spraying chamber consisted of a single spray nozzle mounted on a boom moving at a fixed speed and distance over stationary targets. The vertical distance from the nozzle tip to the targets was adjusted to give rates varying from 150 g/ha to 600 g/ha
(§3) Individual fully expanded primary lima bean (Phaseolus limensis) leaves were placed bottom side up on moistened pieces of filter paper in Petri dishes. The leaves were sprayed with the test solutions and allowed to dry. The dishes were infested with 5 third instar larvae of the southern armyworm, covered with the lids, and held at 27° C. Armyworm control was rated by visual inspection after 48 hours. […] A rating of 0 indicated no dead larvae and normal feeding. Intermediate control was indicated by intermediate ratings.

Mexican Bean Beetle = assay: Protocol 1 Mexican Bean Beetle (BB) foliar spray test; assay type: in vivo, Epilachna verivestis; conditions: control rated after 48 hours (100 = all larvae dead)
Experimental: as §1, §2
as §3, with “mexican bean beetle,” for “southern armyworm,”, “Bean beetle” for “Armyworm”

Two-Spotted Spider Mite = assay: Protocol 1 Two-Spotted Spider Mite (MTA) foliar spray test; assay type: in vivo, Tetranychus urticae; conditions: percentage of mites killed 1-day post-treatment
Experimental: as §1, §2
A pad of moistened cotton was placed in a Petri dish. A 1-inch square section cut from a fully expanded primary lima bean (Phaseolus limensis) leaf was positioned bottom side up on the moist cotton. The leaf square was infested with approximately 50 adult female mites. The dishes were sprayed with the test solutions and held at 27° C. for mortality determination 1-day post-treatment. The percentage of mites killed were rated from 100% (all dead) to 0% (all alive).

Sphaerotheca fuliginea = assay: Cucumber Powdery Mildew (CPM) protectant test in the greenhouse; assay type: in vivo; conditions: 100 is total disease control, 0 is no disease control; for Cucumber Powdery Mildew (CPM) protectant fungicide data, percent control: 300 g/ha; for pest or weed control at 300 g/ha: Podosphaera fuliginea, topical, 168 h, read-out: Cucumber Powdery Mildew (CPM) protectant fungicide data, percent control
In short: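 Protectant format: one day after spraying with test compound (A/M/W 1:1:2), cotyledon-plus-one-leaf cucumber plants were misted with Sphaerotheca spores at 2×10^5/ml. Greenhouse disease development; percent control scored at day 7 (100 = total, 0 = none).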

Pyricularia oryzae = assay: whole plant or invertebrate; assay type: in vivo; conditions: 100 is total disease control, 0 is no disease control; for Rice Blast (RB) protectant fungicide data, percent control: 300 g/ha, greenhouse; for pest or weed control at 300 g/ha: Pyricularia oryzae, topical, 144 h, read-out: Rice Blast (RB) protectant fungicide data, percent control, protectant, 300 g/ha, greenhouse

Compound	AW (Southern Armyworm; Protocol 1, DOSE 300)	BB (Mexican Bean Beetle; Protocol 1, DOSE 300)	MTA (Two-Spotted Spider Mite; Protocol 1, DOSE 300)	Cucumber Powdery Mildew (CPM) protectant fungicide data, percent control (Sphaerotheca fuliginea)	Rice Blast (RB) protectant fungicide data, percent control (Pyricularia oryzae)	AW (Southern Armyworm; Protocol 1, DOSE 150)	BB (Mexican Bean Beetle; Protocol 1, DOSE 150)	MTA (Two-Spotted Spider Mite; Protocol 1, DOSE 150)	pest or weed control at 300 g/ha (Sphaerotheca fuliginea)	pest or weed control at 300 g/ha (Pyricularia oryzae)	AW (Southern Armyworm; Protocol 1, DOSE 600)
Cc1nc(-c2ccc(Cl)cc2)nn(CC(F)(F)F)c1=O [compound 239]	0	75	0%	–	–	–	–	–	–	–	–
COc1cccc(-c2ncc(=O)n(CC(F)(F)F)n2)c1 [Compound 252]	–	–	–	0 percent control	85 percent control	0	100	50%	–	–	–
CC(C)(C)N1N=C(c2ccc(Cl)cc2)NCC1=O [Compound 6, 1-t-Butyl-3-(4-chlorophenyl)-4,5-dihydro-1,2,4-triazin-6-one]	0	100	–	–	–	–	–	–	50%	90%	–
O=c1cnc(-c2cc(Cl)cc(Cl)c2)nn1CC(F)(F)F [Compound 248]	–	–	–	80 percent control	100 percent control	0	0	100%	–	–	–
O=c1cnc(-c2ccccc2)nn1CC(F)(F)F [Compound 7, 1-(2,2,2-trifluoroethyl)-3-phenyl-1,2,4-triazin-6-one]	0	100	–	–	–	–	–	–	75%	95%	–
Cc1ccc(-c2ncc(=O)n(CC(F)(F)F)n2)cc1 [Compound 247]	0	90	0%	80 percent control	100 percent control	–	–	–	–	–	–
O=C1CNC(c2cc(Cl)cc(Cl)c2)=NN1CC(F)(F)F [Compound 43]	–	–	–	80 percent control	99 percent control	50	0	0%	–	–	–
CCCC(C)n1nc(-c2ccc(Cl)cc2)ncc1=O (stereo not shown) [Compound 254]	–	–	–	0 percent control	95 percent control	0	100	100%	–	–	–
O=C1CNC(c2ccc(Cl)cc2)=NN1c1ccccc1 [Compound 29]	0	0	90%	90 percent control	90 percent control	–	–	–	–	–	–
O=c1cnc(-c2ccc(Cl)cc2)nn1CC(F)(F)F [Compound 233]	50	75	0%	80 percent control	100 percent control	–	–	–	–	–	–
O=C1CNC(Cc2ccccc2)=NN1CC(F)(F)F [Compound 44]	–	–	–	0 percent control	85 percent control	75	0	0%	–	–	–
Cc1c(Cl)cc(-c2ncc(=O)n(CC(F)(F)F)n2)cc1Cl [Compound 253]	–	–	–	50 percent control	100 percent control	0	0	100%	–	–	–
CCn1nc(-c2ccc(Cl)cc2)ncc1=O [Compound 235]	0	100	100%	80 percent control	90 percent control	–	–	–	–	–	–
CC(=O)N1CC(=O)N(CC(F)(F)F)N=C1c1ccc(Cl)cc1 [Compound 40]	0	50	90%	0 percent control	90 percent control	–	–	–	–	–	–
O=C1CNC(c2ccc(Cl)cc2)=NN1 [Compound 5, 3-(4-Chlorophenyl)-4,5-dihydro-1,2,4-triazin-6-one]	–	75	–	–	–	–	–	–	50%	75%	50
CCCSC1NC(c2ccc(Cl)cc2)=NN(CC(F)(F)F)C1=O (stereo not shown) [Compound 19, 1-(2,2,2-trifluoroethyl)-3-(4-chlorophenyl)-5-propylthio-4,5-dihydro-1,2,4-triazin-6-one]	–	–	–	–	–	0	100	–	75%	100%	–
COC1NC(c2ccc(Cl)cc2)=NN(CC(F)(F)F)C1=O (stereo not shown) [Compound 26]	0	50	0%	95 percent control	100 percent control	–	–	–	–	–	–
O=C1CNC(c2ccccc2)=NN1CC(F)(F)F [Compound 33]	0	100	75%	75 percent control	80 percent control	–	–	–	–	–	–
Cc1ccc(C2=NN(CC(F)(F)F)C(=O)CN2)cc1 [Compound 41]	0	50	0%	50 percent control	100 percent control	–	–	–	–	–	–
CN1N=C(c2ccc(Cl)cc2)NCC1=O [Compound 27]	0	75	0%	99 percent control	80 percent control	–	–	–	–	–	–
O=c1cnc(Cc2ccccc2)nn1CC(F)(F)F [Compound 249]	–	–	–	0 percent control	85 percent control	100	0	90%	–	–	–
Cn1nc(-c2ccc(Cl)cc2)ncc1=O [Compound 238]	0	75	100%	90 percent control	50 percent control	–	–	–	–	–	–
CC(C)(C)n1nc(-c2ccc(Cl)cc2)ncc1=O [Compound 241]	0	0	100%	0 percent control	50 percent control	–	–	–	–	–	–
Cn1nc(-c2ccccc2)ncc1=O [compound 242]	0	90	100%	–	–	–	–	–	–	–	–
O=c1cnc(-c2ccc(Cl)cc2)nn1C1CCCCC1 [Compound 256]	–	–	–	–	95 percent control	0	0	90%	–	–	–
CN1CC(=O)N(CC(F)(F)F)N=C1c1ccccc1 [Compound 34]	0	75	0%	–	–	–	–	–	–	–	–
O=C1CNC(c2ccc(Cl)cc2)=NN1CC(F)(F)F [Compound 4, 1-(2,2,2-trifluoroethyl)-3-(4-chlorophenyl)-4,5-dihydro-1,2,4-triazin-6-one]	75	0	–	–	–	–	–	–	50%	99%	–
CCC#CCn1nc(-c2ccc(Cl)cc2)ncc1=O [Compound 8, 1-(2-pentynyl)-3-(4-chlorophenyl)-1,2,4-triazin-6-one]	0	0	–	–	–	–	–	–	90%	99%	–

Reference: patent publication US7494996B2 (priority 2000, dated 2009)
